Literature values, collected in patent US10226403B2, “Composition and method for using medicament for endodontic irrigation, stem cell preparation and tissue regeneration” (priority 2012, dated 2019).
Read-outs that look alike come from different tables or passages of the source.

For OCl [Sodium hypochlorite, sodium hypochlorite], the effectiveness is listed as “highly effective” and the effectiveness (at 1.3-2.5%) is listed as “ineffective”.
